The results in this text go back to patent publication US20080300298A1, “Honokiol Derivates For the Treatment of Proliferative Disorders” (priority 2005, published 2008).

In data set [1] the test system is BMSCs. It counts as cell-based, human. As to the method: MNCs in BM specimens were also used to establish long-term bone marrow stromal cell (BMSC) cultures, as described in, for example, Uchiyama et al Blood. 1993; 82:3712-3720 and Hideshmia et al Oncogene. 2001; 20:4519-4527.
Reagents: Honokiol (HNK; Calbiochem, San Diego, Calif.) was dissolved in ethanol at 20 mg/ml stock solution. Recombinant human interleukin-6 (IL-6), vascular endothelial growth factor (VEGF) and insulin-like growth factor-1 (IGF-1) (R&D Systems, Minneapolis, Minn.) were reconstituted with sterile PBS containing 0.1% FBS (IL-6 and VEGF) and 10 mM of acetic acid containing 0.1% FBS (IGF-1), respectively. Pan-caspase inhibitor z-VAD-fmk (Bachem, Bubendorf, Switzerland) was dissolved in methanol. These reagents were stored at −20° C. and diluted by media just before the use. Doxorubicin (Sigma, St Louis, Mo.) was dissolved in sterile water at the concentration of 3.45 mM. As2O3 (5 mM in PBS) was provided by Cell Therapeutics Inc. (Seattle, Wash.). […] Absorbance readings at a wavelength of 450 nm were taken on a spectrophotometer (Molecular Devices Corp., Sunnyvale, Calif.).
The effect of HNK on MM cells in the presence of exogenous IL-6 and IGF-1, as well as BMSCs was evaluated. […] DNA synthesis was determined by measuring [^3H]-thymidine incorporation during the last 8 h of 48 h cultures. […]

In data set [2] the test system is splenic B cells. The data set can be described thus: CD40 mediated cytokine production of splenic B cells from treated mice. It counts as in vivo, C57BL/6 or mCD40-LMP1 Tg mice. Conditions: honokiol 3 mg/day, day 21-70. How it is done:
CD40 mediated IL-6 and TNF-alpha production was also evaluated. […] IL-6 in culture supernatants was assessed by ELISA. Mice were assessed 70 days post-immunization with CII/CF or CFA only (or naïve). Some mice received honokiol (3 mg/day) from day 21-70 post-immunization. […] TNF-a in culture supermatants was assessed by ELISA. Mice were assessed 70 days post-immunization with CII/CF or CFA only (or naïve). Some mice received honokiol (3 mg/day) from day 21-70 post-immunization. […] In LMP1 Tg mice, even negative control mice have lowered IL-6 and TNF-alpha responses. However, IL-10 was not affected, as determined by analyzing the role of Honokiol treatment on B cell IL-10 production. […] IL-10 in culture supermatants was assessed by ELISA. Mice were assessed 70 days post-immunization with CII/CF or CFA only (or naïve). Some mice received honokiol (3 mg/day) from day 21-70 post-immunization.

Data set [3] concerns RAW 264.7 cells. The data set can be described thus: Osteoclast differentiation assay (RANKL). Conditions: RAW 264.7, 5 mM (printed) honokiol 12 h, 5 nM RANKL. It counts as cell-based, mouse. How it is done:
(A) RAW 264.7 cells (1×10^4) were plated overnight, pretreated with 5 mM honokiol for 12 h, and then treated with 5 nM RANKL. At 4 and 5 days later, cells were stained for TRAP and evaluated for osteoclastogenesis. Photographs were taken after 5 days of incubation with RANKL. (B) The numbers of TRAP-positive multinucleated osteoclasts (>3 nuclei) per well were counted. (C) H1299 cells (2.5×10^4) were seeded into the upper wells of a Matrigel invasion chamber overnight in the absence of serum, pretreated with […] honokiol for 12 h, treated with 1 nM TNF for 24 h in the presence of 1% serum, and then subjected to invasion assay. The value for no honokiol and no TNF was set to 1.0.
Osteoclast differentiation assay. […] At days 4 and 5, the cells were stained for tartrate-resistant acid phosphatase (TRAP) expression, as previously described (18) using an acid phosphatase kit (Sigma-Aldrich), and the TRAP-positive multinucleated osteoclasts (>3 nuclei) per well were counted.
Honokiol suppresses RANKL-induced osteoclastogenesis. Because RANKL, a member of the TNF superfamily, induces osteoclastogenesis through the activation of NF-kB (Abu-Amer, Y., et al. 1997 Nat. Med. 3:1189-1190), whether honokiol can suppress RANKL-induced osteoclastogenesis was assessed. […]

Data set [4] concerns heart AMPKK. The data set can be described thus: direct activation of AMPKK in vitro. The data set is classed as biochemical.
The subject of data set [5] is phospholipase D in SVR cells. Kind of data set: phospholipase D activity. The data set is classed as cell-based. Conditions: 0.5% and 10% serum. The text has this:
Honokiol analogs can stimulate tumor and endothelial cell apoptosis through inhibition of PLD activity. […] Treatment with […] causes downregulation of S6kinase phosphorylation in a time and dose dependent fashion, as well as downregulation of akt. Thus, honokiol mimics several of the activities of wild type tuberin.

Data set [6] has as its system CH12.hCD40-LMP1 B cells. Kind of data set: CD40/LMP1 mediated cytokine and IgM production. It counts as cell-based, mouse. As to the method:
IL-6 and TNF-a levels in culture supernatants were determined by ELISA. Subsequent IgM production by CH12.LX cells is also affected, as determined by assaying IgM secretion by CH12.hCD40-LMP1 cells. IgM secretion was measured by hemolytic plaque assay, as previously described (GA Bishop. 1991. J. Immunol. 147(4): 1107-1114).

Turning to `C=CCc1ccc(O)c(-c2ccc(O)c(CC=C)c2)c1` [HNK, Honokiol], in data set [1], the “viability of BMSCs” value is listed as “did not affect the viability of BMSCs”. Moreover, in data set [2], the “CD40 mediated IL-6 production” value was “CD40 mediated IL-6 production is decreased” and the “CD40 mediated TNF-alpha production” value is listed as “CD40 mediated TNF-alpha production is decreased”. Also, in data set [3], the “RANKL-induced osteoclast differentiation (TRAP)” value is recorded as “suppressed it”. In data set [4], the “direct activation of heart AMPKK” value was “does not directly activate heart AMPKK in vitro”. In addition, the “activity of phospholipase D” value in data set [5] is “inhibits the activity of phospholipase D in both 0.5% and 10% serum”. Also, the “CD40/LMP1 mediated IL-6, TNF-a production” value in data set [6] (CH12.LX cells transfected with hCD40-LMP1, not IL-10 or IL-4) is reported as “inhibits CD40/LMP1 mediated IL-6, TNF-a production in a dose-dependent manner”. In data set [6] (CH12.hCD40-LMP1 cells), the “IgM secretion (hemolytic plaque assay)” value is listed as “inhibited IgM production”.
